Data: patent US20220259234A1, “COT MODULATORS AND METHODS OF USE THEREOF” (Gilead Sciences, Inc., priority 2019, published 2022)
≈ marks a conversion by molar mass, not a printed value. Like-named read-outs stand apart in the source and are kept apart here.

Experiments:
[1] = In vivo dog pharmacokinetics; details: beagle dogs; for AUC0-72 h of the named analyte in plasma: label = analyte measured
[2] = Human GI S9 stability
Experimental: (§2) GI S9 stability assays were performed. Generally, a substrate concentration of 2 μM was used, a protein concentration of 1.0 mg/mL intestinal S9 was used, and a reaction buffer of 1× phosphate buffered saline (PBS) was used. Intestinal S9 was provided by BioIVT (dog) or Xenotech (human). […] Plates were vortexed, and then centrifuged at 3000×G for 30 minutes. 150 μL of supernatant was transferred to new plates and 150 μL water was added. New plates were vortexed to mix.
(§3) Samples were analyzed with a Leap HTC Autosampler and a Dionex UltiMate 3000 HPLC system interfaced to a Thermo Q-Exactive mass spectrometer operation in positive ion electrospray mode. A Thermo Scientific Hypersil GOLD (1.9 μM particle size, 50×2.1 mm) HPLC column was used and mobile phase was pumped at 0.5 mL/min. Elution of analytes was achieved by a series of linear gradients of acetonitrile in water containing 0.1% (v/v) formic acid. Quantification was by analyte/internal standard peak area ratio (PAR).

[3] = Human plasma stability; assay type: in vitro ADME; details: substrate 2 μM, read-out: Human Plasma T½
Experimental: (§1) Plasma stability assays were performed in human and dog. Duplicate sets were performed with a tecan liquid handler or with cluster tubes in a heat block. Generally, a substrate concentration of 2 μM was used. Plasma in sodium EDTA was provided by BioIVT as whole plasma with K2 EDA as anti-coagulent.

[4] = Dog plasma stability; assay type: in vitro ADME; details: substrate 2 μM, read-out: Dog Plasma T½
Experimental: as §1

[5] = Solubility in FaSSIF and FeSSIF; assay type: physicochemical; details: thermodynamic from solid
Experimental: Solubility was determined at ambient temperature in buffered fasted-state simulated intestinal fluid (FaSSIF, pH 6.5) and buffered fed-state simulated intestinal fluid (FeSSIF, pH 5.0) prepared in-house using BioRelevant Simulated Intestinal Fluid (SIF) powder. Solids were added to FaSSIF or FeSSIF in 1.5-mL Eppendorf tubes, sonicated for 1 minute, then agitated for 2.5 hours in an Eppendorf ThermoMixer C. To determine concentration in solution, the suspensions were centrifuged for 10 min at 14,800 rpm and supernatants were diluted to a volume of 1 mL with 1:1 v/v acetonitrile:water. All diluted supernatants were analyzed by UPLC using a Waters Acquity UPLC with a PDA UV detector.

[6] = Dog GI S9 stability
Experimental: as §2, §3

[7] = oral powder in capsule, dosed Compound B 9.7 mg-eq/kg
[8] = fasted-state simulated intestinal fluid (FaSSIF), fassif, fasted-state simulated intestinal fluid pH 6.5, ambient temperature, read-out: FaSSIF (pH 6.5) solubility
[9] = fed-state simulated intestinal fluid (FeSSIF), fessif, fed-state simulated intestinal fluid pH 5.0, ambient temperature, read-out: FeSSIF (pH 5.0) solubility

Row | Structure (SMILES) | half-life at 2 μM ([2]; intestinal S9) | half-life at 2 μM [3] | solubility at 2.5 h [5, 8] | solubility at 2.5 h [5, 9] | half-life at 2 μM ([6]; intestinal S9) | other results
1 | Cn1ccc2c([C@@H](c3cn(C45CC(C4)C5)nn3)N(C(=O)OCOP(=O)(O)O)c3cc(Cl)c4ncc(C#N)c(NCC(C)(C)C)c4c3)cccc2c1=O [Compound B] |  |  |  |  |  | AUC0-72 h of the named analyte in plasma [1, 7]: BLQ
2 | Cn1ccc2c([C@@H](c3cn(C45CC(C4)C5)nn3)N(C(=O)OCCCOP(=O)(O)O)c3cc(Cl)c4ncc(C#N)c(NCC(C)(C)C)c4c3)cccc2c1=O [Compound C] |  |  |  |  |  | AUC0-72 h of the named analyte in plasma ([1]; oral 3 mg/mL solution, dosed Compound C 3 mg-eq/kg): BLQ; in vivo conversion of dosed compound ([1]; oral solution of Compound C, plasma over 72 hour): converted in vivo to both Compound D and Compound A in measurable amounts
3 | Cn1ccc2c([C@@H](c3cn(C45CC(C4)C5)nn3)N(C(=O)OCOP(=O)(O)O)c3cc(Cl)c4ncc(C#N)c(NCC(C)(C)C)c4c3)cccc2c1=O [Example 1, (Phosphonooxy)methyl (S)-((1-(bicyclo[1.1.1]pentan-1-yl)-1H-1,2,3-triazol-4-yl)(2-methyl-1-oxo-1,2-dihydroisoquinolin-5-yl)methyl)(8-chloro-3-cyano-4-(neopentylamino)quinolin-6-yl)carbamate] | 43 min | 369 min | > 1580 µg/mL | > 2170 µg/mL | 26 min | half-life at 2 μM [4]: 278 min
4 | C[C@H](N)C(=O)OCOC(=O)N(c1cc(Cl)c2ncc(C#N)c(NCC(C)(C)C)c2c1)[C@H](c1cn(C23CC(C2)C3)nn1)c1cccc2c(=O)n(C)ccc12 [Example 2, ((((S)-(1-(bicyclo[1.1.1]pentan-1-yl)-1H-1,2,3-triazol-4-yl)(2-methyl-1-oxo-1,2-dihydroisoquinolin-5-yl)methyl)(8-chloro-3-cyano-4-(neopentylamino)quinolin-6-yl)carbamoyl)oxy)methyl L-alaninate] | < 1 min | 14 min | > 1880 µg/mL | > 1910 µg/mL | 1 min | half-life at 2 μM [4]: 3 min
5 | Cn1ccc2c([C@@H](c3cn(C45CC(C4)C5)nn3)N(C(=O)OCCCOP(=O)(O)O)c3cc(Cl)c4ncc(C#N)c(NCC(C)(C)C)c4c3)cccc2c1=O [Example 4, 3-(Phosphonooxy)propyl (S)-((1-(bicyclo[1.1.1]pentan-1-yl)-1H-1,2,3-triazol-4-yl)(2-methyl-1-oxo-1,2-dihydroisoquinolin-5-yl)methyl)(8-chloro-3-cyano-4-(neopentylamino)quinolin-6-yl)carbamate] |  |  | 4 µg/mL (≈ 5.16 µM) | 210 µg/mL (≈ 271 µM) |  | half-life at 2 μM ([2]; s9): 21 min; half-life at 2 μM ([6]; s9): 12 min
6 | Cc1nc(F)ccc1[C@@H](c1cn(C23CC(C2)C3)nn1)N(C(=O)OCOP(=O)(O)O)c1cc(C#N)c2ncc(C#N)c(NCC(C)(C)C)c2c1 [Example 6, (Phosphonooxy)methyl (S)-((1-(bicyclo[1.1.1]pentan-1-yl)-1H-1,2,3-triazol-4-yl)(6-fluoro-2-methylpyridin-3-yl)methyl)(3,8-dicyano-4-(neopentylamino)quinolin-6-yl)carbamate] |  |  |  |  |  | half-life at 2 μM ([2]; s9): 25 min; half-life at 2 μM ([6]; s9): 14 min
7 | CC(=O)OCOC(=O)N(c1cc(C#N)c2ncc(C#N)c(NCC(C)(C)C)c2c1)[C@H](c1cn(C23CC(C2)C3)nn1)c1ccc(F)nc1C [Example 7, (S)-((((1-(bicyclo[1.1.1]pentan-1-yl)-1H-1,2,3-triazol-4-yl)(6-fluoro-2-methylpyridin-3-yl)methyl)(3,8-dicyano-4-(neopentylamino)quinolin-6-yl)carbamoyl)oxy)methyl acetate] | 3 min |  | 12 µg/mL | 42 µg/mL |  | 
8 | Cc1nc(F)ccc1[C@@H](c1cn(C23CC(C2)C3)nn1)N(C(=O)OCOC(=O)C1CCN(C)CC1)c1cc(C#N)c2ncc(C#N)c(NCC(C)(C)C)c2c1 [Example 8, (S)-((((1-(bicyclo[1.1.1]pentan-1-yl)-1H-1,2,3-triazol-4-yl)(6-fluoro-2-methylpyridin-3-yl)methyl)(3,8-dicyano-4-(neopentylamino)quinolin-6-yl)carbamoyl)oxy)methyl 1-methylpiperidine-4-carboxylate] | 165 min | 237 min | 77 µg/mL (≈ 105 µM) | 450 µg/mL (≈ 612 µM) |  | 
9 | COC[C@@H](C)OC(=O)N(c1cc(C#N)c2ncc(C#N)c(NCC(C)(C)C)c2c1)[C@H](c1cn(C23CC(C2)C3)nn1)c1ccc(F)nc1C [Example 9, (R)-1-methoxypropan-2-yl ((S)-(1-(bicyclo[1.1.1]pentan-1-yl)-1H-1,2,3-triazol-4-yl)(6-fluoro-2-methylpyridin-3-yl)methyl)(3,8-dicyano-4-(neopentylamino)quinolin-6-yl)carbamate] | 789 min | 1580 min | 12 µg/mL (≈ 18.4 µM) | 52 µg/mL (≈ 79.8 µM) |  | 
10 | Cc1nc(F)ccc1[C@@H](c1cn(C23CC(C2)C3)nn1)N(C(=O)OCOP(=O)(O)O)c1cc(C#N)c2ncc(C#N)c(N[C@H](C)C(C)(C)C)c2c1 [Example 10, (Phosphonooxy)methyl ((S)-(1-(bicyclo[1.1.1]pentan-1-yl)-1H-1,2,3-triazol-4-yl)(6-fluoro-2-methylpyridin-3-yl)methyl)(3,8-dicyano-4-(((R)-3,3-dimethylbutan-2-yl)amino)quinolin-6-yl)carbamate] |  |  |  |  |  | half-life at 2 μM ([2]; s9): 26 min; half-life at 2 μM ([6]; s9): 20 min
11 | COC[C@@H](C)OC(=O)N(c1cc(C#N)c2ncc(C#N)c(N[C@H](C)C(C)(C)C)c2c1)[C@H](c1cn(C23CC(C2)C3)nn1)c1ccc(F)nc1C [Example 12, (R)-1-methoxypropan-2-yl ((S)-(1-(bicyclo[1.1.1]pentan-1-yl)-1H-1,2,3-triazol-4-yl)(6-fluoro-2-methylpyridin-3-yl)methyl)(3,8-dicyano-4-(((R)-3,3-dimethylbutan-2-yl)amino)quinolin-6-yl)carbamate] | 477 min |  |  |  | 528 min | 
12 | Cc1nc(F)ccc1[C@@H](c1cn(C23CC(C2)C3)nn1)N(C(=O)C(=O)O)c1cc(C#N)c2ncc(C#N)c(N[C@H](C)C(C)(C)C)c2c1 [Example 13, 2-(((S)-(1-(bicyclo[1.1.1]pentan-1-yl)-1H-1,2,3-triazol-4-yl)(6-fluoro-2-methylpyridin-3-yl)methyl)(3,8-dicyano-4-(((R)-3,3-dimethylbutan-2-yl)amino)quinolin-6-yl)amino)-2-oxoacetic acid] | 789 min |  |  |  | 789 min | 
13 | Cn1ccc2c([C@@H](c3cn(C45CC(C4)C5)nn3)N(C(=O)OCO)c3cc(Cl)c4ncc(C#N)c(NCC(C)(C)C)c4c3)cccc2c1=O [Intermediate A] |  |  |  |  |  | AUC0-72 h of the named analyte in plasma [1, 7]: BLQ
